Assays:
Type in all cases: cell-based, mouse
[1] = system: HD1B cells; assay: Mitochondrial membrane potential assay (JC1) in HD1A and HD1B cells; conditions: for mitochondrial membrane potential (JC-1 staining): NAC 100 μM or Tempol 10 μM overnight
Procedure: (§1) HD1A and HD1B cells were grown in 24-well plates to the desired confluence. Cells were treated with solvent (DMSO, 0.1%), rapamycin (40 nM), or PP242 (40 nM) for 1 hour, or NAC (100 μM, Sigma-Aldrich), or Tempol (10 μM, Sigma-Aldrich) overnight. Treated cells were replaced with the pre-warmed (37° C.) medium containing JC1 (5 μM, Molecular Probes) for 1 hour. Labeled cells were replaced with fresh medium and examined under the Nikon inverted fluorescence microscope.

[2] = system: mTOR signaling pathway; assay: Western blot of mTOR downstream effector S6 phosphorylation in HD1A and HD1B cells
Procedure: HD1A and HD1B cells were lysed in the Cell Lytic M mammalian cell lysis/extraction buffer (Sigma-Aldrich) according to the manufacturer's instruction. Protein samples were fractionated on a Novex 4-20% Tris-Glycine Mini Gel (Invitrogen). After transferring to the polyvinylidene difluoride membrane (Bio-Rad), the membrane was blotted with 5% nonfat dry milk in 1×PBS, and incubated with rabbit anti-p-S6 (Ser235/236), anti-S6, anti-p-Drp1 (Ser616), anti-Drp1, and anti-actin primary antibodies (from Cell Signaling), or rat anti-LAMP1, rabbit anti-Opa1 antibodies (from Santa Cruz). Following incubation with the secondary antibody that conjugated with horse radish peroxidase, proteins were visualized with chemiluminescent substrate (Thermo Scientific) under ChemiDox MP Image System.
as §1

[3] = system: HD1B cells; assay: ROS measurement by flow cytometry in HD1A and HD1B cells; conditions: 40 nM, 60 minutes
Procedure: HD1A and HD1B cells were treated with solvent, rapamycin (40 nM), or PP242 (40 nM) for 60 minutes. Cells were washed and stained with 2 μM of 2′,7′-dichlorodihydrofluorescein diacetate stained (DCFDA, Invitrogen) which is nonfluorescent until the acetate group is removed by intracellular esterases and oxidation occurs within the cell (Invitrogen). The incubation was at 37° C. for 20 minutes, followed by washing with cold PBS. The ROS level was measured by flow cytometry.

| SMILES | mitochondrial membrane potential (JC-1 staining) [1] | mTOR downstream effector S6 phosphorylation [2] | ROS production [3] | mitochondrial membrane potential (JC1 staining) ([1]; mTOR inhibitor 40 nM, 1 hour) |
| --- | --- | --- | --- | --- |
| CC1(C)CC(O)CC(C)(C)N1[O] [TEMPOL] | partially improved the condition of the mitochondrial membrane potential |  |  |  |
| CC(=O)N[C@@H](CS)C(=O)O [NAC] | partially improved the condition of the mitochondrial membrane potential |  |  |  |
| CC(C)n1nc(-c2cc3cc(O)ccc3[nH]2)c2c(N)ncnc21 [PP242] |  | blocked mTOR downstream effector S6 phosphorylation | decreased ROS production | reversed the damaged mitochondrial membrane potential |

From patent publication US10857209B2, “Lysosomal acid lipase and PPAR gamma ligands as immune therapies for cancer treatment” (Indiana University Research and Technology Corporation, priority 2016, dated 2020)
